Reference: paper PMC6701825, “Antiproliferative and Antimigratory Effects of a Novel YAP–TEAD Interaction Inhibitor Identified Using in Silico Molecular Docking” (Journal of Medicinal Chemistry, 2019)

Columns and labels:
MCF7 cells = assay: EdU proliferation assay in MCF7 cells; assay type: cell-based, human; details: MCF7, YAP-TEAD-independent growth, 18 hours then 6 hours EdU
Protocol: Cell proliferation was measured using the Click-iT EdU 488 assay (Sigma-Aldrich). Briefly, the cells were treated with indicated concentrations of compounds for 24 h with the last 4 h being in the presence of 10 μM EdU. The cells were fixed in 4% formaldehyde and stained for EdU incorporation, following the kit’s standard protocol. The cells were counterstained with Hoechst 33342 nucleic acid for 20 min. Fluorescent images of at least three fields of view per well were counted using ImageJ software. Real-time analysis of cell migration was performed using an IncuCyte ZOOM live cell imaging system (Essen BioScience) according to the manufacturer’s instructions. Briefly, the cells were seeded (1.2 × 10^4 cells/well for HeLa cells, 1.5 × 10^4 cells/well for RaVSMCs, and 1 × 10^4 cells/well) into ImageLock 96-well plates. After 36 h, the cells were pretreated overnight with indicated concentrations of compounds. The wells were scratched using a WoundMaker tool, and the media were replaced containing test compounds. Phase contrast images of cell migration into the wounded area were acquired hourly for 24 h. Relative wound confluence was calculated using the Cell Migration Image analysis module of the IncuCyte ZOOM software. […]
MCF7 cells were incubated with the indicated concentrations of CPD3.1 (n=3). […] Edu incorporation in to newly synthesised DNA was detected using the Edu-Click detection kit. […]

CCN1 protein = assay: Western blotting of CCN1 protein in VSMC lysates; assay type: cell-based; details: indicated concentrations, 16 hr
Protocol: (§1) Figure 9 Compound 3.1 inhibits TEAD target gene expression, cell proliferation, and cell migration in RaVSMCs. RaVSMCs stably transduced with TEAD-NLUC (A) or transiently transfected with CCN1-LUC or CTGF-LUC were treated with the indicated concentrations of compound 3.1 for 6 hr. Cell conditioned media (A) or cell lysates (B−C) were assayed for nanoluciferase or fire-fly luciferase activity, respectively. VSMC were treated with 60 μM compound 3.1 for 6 h (n = 3). Total RNA was analyzed for mRNA levels of TEAD-target genes (D) or constitutive housekeeping genes (E) by qRT-PCR. VSMC were treated with indicated concentrations of compound 3.1 for 16 hr (n = 4). Total cell lysates were analyzed for CCN1 protein expression by Western blotting (F). RaVSMCs (G) or HuVSMC (H) were treated with indicated concentrations of compound 3.1 for 18 h followed by labeling in 10 μM EdU for a further 6 h (n = 4). RaVSMCs (I) or HuVSMC (J) were treated with indicated concentrations of compound 3.1 and cell migration quantified using IncuCyte real time migration assay (n = 4).
Extracted samples were separated by 4–12% SDS-polyacrylamide gel electrophoresis (Bio-Rad) and transferred to poly(vinylidene difluoride) membranes (GE Healthcare). Membranes were blocked in 5% low-fat milk in 10 mM Tris pH 7.6, 150 mM NaCl, 0.2% Tween. […]

HuVSMC = assay: Real-time IncuCyte scratch wound migration assay in HuVSMC; assay type: cell-based, human; details: HuVSMC, 0.25, 0.5, 2, and 10 μM
Protocol: as §1
Cell proliferation was measured using the Click-iT EdU 488 assay (Sigma-Aldrich). […] Fluorescent images of at least three fields of view per well were counted using ImageJ software. […] Relative wound confluence was calculated using the Cell Migration Image analysis module of the IncuCyte ZOOM software.

[1] = target: T1, myc-TEAD1:GFP-YAP complexes (Homo sapiens, UniProt P28347); assay: Co-immunoprecipitation of myc-TEAD1 and GFP-YAP; assay type: binding; details: 200 μM CPD3
T1 construct: #17843 (GFP-YAP1); host or cells: HeLa
T1 sequence (P28347 whole entry, one chain of several): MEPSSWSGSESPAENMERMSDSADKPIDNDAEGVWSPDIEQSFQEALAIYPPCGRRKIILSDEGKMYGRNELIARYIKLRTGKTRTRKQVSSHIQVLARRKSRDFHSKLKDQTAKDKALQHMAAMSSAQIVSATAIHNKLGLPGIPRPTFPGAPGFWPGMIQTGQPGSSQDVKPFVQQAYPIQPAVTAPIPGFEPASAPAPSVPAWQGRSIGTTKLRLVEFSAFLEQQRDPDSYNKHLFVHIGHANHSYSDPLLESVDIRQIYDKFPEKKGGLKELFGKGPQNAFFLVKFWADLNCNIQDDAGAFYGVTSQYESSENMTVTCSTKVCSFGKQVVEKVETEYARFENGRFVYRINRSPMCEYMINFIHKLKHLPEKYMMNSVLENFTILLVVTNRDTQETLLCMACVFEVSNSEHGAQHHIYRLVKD
Protocol: Figure 1 BUDE screening-identified compound 3 for TEAD inhibition. (A) HeLa cells were stably transduced with a lentiviral viral vector containing 8×TEAD-secreted nanoluciferase reporter gene (TEAD-NLUC). Cells were transfected with non-targeting siRNA (siNEG), siRNA targeting YAP (siYAP), control adenoviral vector or an adenovirus expression constitutively active YAPS127A (Ad:YAP). Culture media were conditioned for 6 h and assayed for secreted nanoluciferase activity (n = 3). (B) HeLa cells stably transduced with TEAD-NLUC were treated with 100 μM of indicated compound for 6 h. Cell conditioned media were assayed for nanoluciferase activity (n = 3). […] (D) Recombinant GST-TEAD1 protein bound to glutathione resin was incubated with 200 μM of the indicated compounds and HEK293 cell lysate containing endogenous YAP protein for 18 h at 4 °C. The resin was washed, and bound YAP eluted and quantified by Western blotting (n = 2). […] Co-immunoprecipitated YAP or TEAD was quantified by Western blotting. […]
HeLa cells were transiently transfected with either pRK5-myc-TEAD1 (Addgene #33109) or pEGFP-C3-YAP1 (Addgene #17843). […] Following washing, immunoprecipitated proteins were eluted by boiling in sodium dodecyl sulfate (SDS) buffer (50 mM Tris pH 6.8, 20% glycerol, 2% SDS) and analyzed by Western blotting.

RaVSMCs = assay: EdU proliferation assay in RaVSMCs; assay type: cell-based, rat; details: 18 h then 6 h 10 μM EdU
Protocol: Cell proliferation was measured using the Click-iT EdU 488 assay (Sigma-Aldrich). Briefly, the cells were treated with indicated concentrations of compounds for 24 h with the last 4 h being in the presence of 10 μM EdU. The cells were fixed in 4% formaldehyde and stained for EdU incorporation, following the kit’s standard protocol. The cells were counterstained with Hoechst 33342 nucleic acid for 20 min. Fluorescent images of at least three fields of view per well were counted using ImageJ software. Real-time analysis of cell migration was performed using an IncuCyte ZOOM live cell imaging system (Essen BioScience) according to the manufacturer’s instructions. Briefly, the cells were seeded (1.2 × 10^4 cells/well for HeLa cells, 1.5 × 10^4 cells/well for RaVSMCs, and 1 × 10^4 cells/well) into ImageLock 96-well plates. After 36 h, the cells were pretreated overnight with indicated concentrations of compounds. The wells were scratched using a WoundMaker tool, and the media were replaced containing test compounds. Phase contrast images of cell migration into the wounded area were acquired hourly for 24 h. Relative wound confluence was calculated using the Cell Migration Image analysis module of the IncuCyte ZOOM software.

SMILES	proliferation of MCF7 cells (EdU) (MCF7 cells)	CCN1 protein levels (Western blot) (CCN1 protein)	cell migration (scratch wound) (HuVSMC)	binding of GFP-YAP to immunoprecipitated myc-TEAD1 (myc-Trap co-IP) [1]	binding of myc-TEAD1 to affinity-purified GFP-YAP (GFP-Trap co-IP) [1]	cell proliferation (EdU incorporation) (RaVSMCs)
Cc1ccc2c(c1)c1c3n2CCNC3CCC1 (stereo not drawn) [CPD3.1]	did not inhibit the proliferation of MCF7 cells	inhibited the expression of CCN1 protein levels	inhibited in a dose-dependent manner	–	–	–
Cc1ccc2c(c1)c1c3n2CCN(CC(O)CN2CCN(C(=O)c4ccco4)CC2)C3CCC1 (stereo not drawn) [CPD3]	–	–	–	inhibited binding of GFP–YAP	inhibited binding of myc-TEAD1	dose-dependently inhibited cell proliferation
